Measurements as given in US7935688B2, “Vitamin D-like compound” (Chugai Seiyaku Kabushiki Kaisha, priority 2005, dated 2011).

Tested on: osteocalcin production in MG-63 cells
Assay: Osteocalcin production in MG-63 cells (Gla-type Osteocalcin EIA)
Type: cell-based, human
Settings: (EC50 value of 1,25(OH)2D3/EC50 value of each compound)×100; eight hours exposure, then four days culture
Experimental: mg-63 was obtained from Institute for Fermentation, Osaka as a human osteoblast-like cell line. MG-63 cells were maintained and cultured in a MEM medium (Minimum essential medium; pH 7.0; Invitrogen Corporation, Carlsbad, Calif., USA) containing 5% fetal bovine serum (FBS; HyClone, Logan, Utah, USA).
MG-63 cells were adjusted to a density of 4.0×10^4 cells/mL, plated in a 96-well plate at 200 μL per well, and cultured under conditions of 37° C. and 5% carbon dioxide for 24 hours.
After removing the medium, MEM containing 5% charcoal/dextran treated FBS (DCC-FBS; Hyclone, Logan, Utah, USA) was added at 180 μL/well. The test substance (1.0×10^−3 mol/L) was diluted with dimethyl sulfoxide (DMSO) to 1.0×10^−4 mol/L, 1.0×10^−5 mol/L, 1.0×10^−6 mol/L, 1.0×10^−7 mol/L and 1.0×10^−8 mol/L. 1,25(OH)2D3 was used as a positive control. Like the test substance, 1,25(OH)2D3 was diluted with DMSO. 0.02 mL of the positive control and the test substance diluted 100-fold with MEM containing 5% DCC-FCS was added to each well of the 96-well plate, so that the final drug concentration was 1.0×10^−6 mol/L to 1.0×10^−11 mol/L. Thereafter, the cells were cultured under conditions of 37° C. and 5% carbon dioxide for eight hours.
After culturing for eight hours, the medium was removed, and MEM containing 5% DCC-FBS was added at 0.2 mL per well. The cells were cultured under conditions of 37° C. and 5% carbon dioxide for four days, and the medium was recovered. The medium was stored at −80° C. until osteocalcin measurement.
The Gla-type Osteocalcin EIA kit (Takara Bio Inc., Tokyo, Japan) was used for measurement of osteocalcin. Measurement was carried out using a microplate reader (Model 3550, Bio-Rad Laboratories, Inc., Hercules, Calif., USA) at a wavelength of 450 nm, and the results were analyzed by Microplate Manager III (Bio-Rad Laboratories, Inc., ver. 1.57).
The median effective concentration (EC50) was calculated from the osteocalcin concentration. Potency of induction of each compound was calculated as a ratio of EC50 of 1,25(OH)2D3 to EC50 of the compound. The relation between diseases and induction of osteocalcin production is described in Lancet (1984 May 19), 1 (8386), 1091-3; Steroids 66, 159-170 (2001); and Journal of Steroid Biochemistry & Molecular Biology 89-90, 269-271 (2004), for example.
The osteocalcin production level in MG-63 cells (%) was calculated by the formula: (EC50 value of 1,25(OH)2D3/EC50 value of each compound)×100.

Compound | Osteocalcin production level in MG-63 cells (%)
CCC(CC)(c1ccc(CCC(O)C(C)(C)C)c(C)c1)c1ccc(-c2ccc(CC(=O)O)cc2)c(C)c1 (single isomer, unassigned) [Example 13, (4′-{1-ethyl-1-[4-(3-hydroxy-4,4-dimethyl-pentyl)-3-methyl-phenyl]-propyl}-2′-methyl-biphenyl-4-yl)-acetic Acid] | 401
CCC(CC)(c1ccc(CCC(O)C(C)(C)C)c(C)c1)c1ccc(-c2cccc(CC(=O)O)c2)c(C)c1 (single isomer, unassigned) [Example 14, (4′-{1-ethyl-1-[4-(3-hydroxy-4,4-dimethyl-pentyl)-3-methyl-phenyl]-propyl}-2′-methyl-biphenyl-3-yl)-acetic Acid] | 161
CCC(CC)(c1ccc(CCC(O)C(C)(C)C)c(C)c1)c1ccc(-c2ccc(CC(=O)O)cn2)c(C)c1 (single isomer, unassigned) [Example 23, [6-(4-{1-ethyl-1-[4-(3-hydroxy-4,4-dimethyl-pentyl)-3-methyl-phenyl]-propyl}-2-methyl-phenyl)-pyridin-3-yl]-acetic Acid] | 3264
CCC(CC)(c1ccc(CCC(O)C(C)(C)C)c(C)c1)c1ccc(-c2cncc(CC(=O)O)c2)c(C)c1 (single isomer, unassigned) [Example 24, [5-(4-{1-ethyl-1-[4-(3-hydroxy-4,4-dimethyl-pentyl)-3-methyl-phenyl]-propyl}-2-methyl-phenyl)-pyridin-3-yl]-acetic Acid] | 660
C=C1/C(=C\C=C2/CCC[C@]3(C)[C@@H]([C@H](C)CCCC(C)(C)O)CC[C@@H]23)C[C@@H](O)C[C@@H]1O [1,25(OH)2D3, 1α,25-dihydroxyvitamin D3, reference compound] | 100
CCC(O)(/C=C/c1ccc(C(CC)(CC)c2ccc(-c3ccc(CC(=O)O)cc3)c(C)c2)cc1C)CC [Example 22, (E)-(4′-{1-ethyl-1-[4-(3-ethyl-3-hydroxy-1-pentenyl)-3-methyl-phenyl]-propyl}-2′-methyl-biphenyl-4-yl)-acetic Acid] | 1044
CCC(CC)(c1ccc(C#CC(O)(C(F)(F)F)C(F)(F)F)c(C)c1)c1ccc(-c2ccc(CC(=O)O)cc2)c(C)c1 [Example 45, (4′-{1-ethyl-1-[3-methyl-4-(4,4,4-trifluoro-3-hydroxy-3-trifluoromethyl-1-butynyl)-phenyl]-propyl}-2′-methyl-biphenyl-4-yl)-acetic Acid] | 546
CCC(CC)(c1ccc(/C=C/C(O)(C(F)(F)F)C(F)(F)F)c(C)c1)c1ccc(-c2ccc(CC(=O)O)cc2)c(C)c1 [Example 46, (4′-{1-ethyl-1-[3-methyl-4-((E)-4,4,4-trifluoro-3-hydroxy-3-trifluoromethyl-1-butenyl)-phenyl]-propyl}-2′-methyl-biphenyl-4-yl)-acetic Acid] | 2233
CCC(O)(/C=C/c1ccc(C(CC)(CC)c2ccc(-c3ccc(CC(=O)[O-])c(F)c3)c(C)c2)cc1C)CC.[Na+] [Example 48, Sodium (4′-{1-ethyl-1-[4-((E)-3-ethyl-3-hydroxy-1-pentenyl)-3-methyl-phenyl]-propyl}-3-fluoro-2′-methyl-biphenyl-4-yl)-acetate] | 508
CCC(CC)(c1ccc(OCC(O)C(C)(C)C)c(C)c1)c1ccc(-c2ccc(CC(=O)O)cc2)c(C)c1 (stereo not shown) [Example 51, (4′-{1-ethyl-1-[4-(2-hydroxy-3,3-dimethyl-butoxy)-3-methyl-phenyl]-propyl}-2′-methyl-biphenyl-4-yl)-acetic Acid] | 650
CCC(CC)(c1ccc(/C=C/C2(O)CCCC2)c(C)c1)c1ccc(-c2ccc(CC(=O)O)cc2)c(C)c1 [Example 53, (E)-[4′-(1-Ethyl-1-{4-[2-(1-hydroxy-cyclopentyl)-vinyl]-3-methyl-phenyl}-propyl)-2′-methyl-biphenyl-4-yl]-acetic Acid] | 772
CCC(CC)(c1ccc(/C=C/C2(O)CCCCC2)c(C)c1)c1ccc(-c2ccc(CC(=O)O)cc2)c(C)c1 [Example 56, (E)-[4′-(1-ethyl-1-{4-[2-(1-hydroxy-cyclohexyl)-vinyl]-3-methyl-phenyl}-propyl)-2′-methyl-biphenyl-4-yl]-acetic Acid] | 1379
CCC(CC)(c1ccc(CCC(O)C(C)(C)C)c(C)c1)c1ccc(-c2ccc(CC(=O)O)c(F)c2)c(C)c1 (stereo not shown) [Example 60, (4′-{1-ethyl-1-[4-(3-hydroxy-4,4-dimethyl-pentyl)-3-methyl-phenyl]-propyl}-3-fluoro-2′-methyl-biphenyl-4-yl)-acetic Acid] | 3798
CCC(CC)(c1ccc(CCC(O)C(C)(C)C)c(C)c1)c1ccc(-c2ccc(CC(=O)O)c(Cl)c2)c(C)c1 (stereo not shown) [Example 61, (4′-{1-ethyl-1-[4-(3-hydroxy-4,4-dimethyl-pentyl)-3-methyl-phenyl]-propyl}-3-chloro-2′-methyl-biphenyl-4-yl)-acetic Acid] | 956
CCC(CC)(c1ccc(/C=C/C(O)(C(F)(F)F)C(F)(F)F)c(C)c1)c1ccc(-c2ccc(CC(=O)O)c(F)c2)c(C)c1 [Example 72, (4′-{1-ethyl-1-[3-methyl-4-((E)-4,4,4-trifluoro-3-hydroxy-3-trifluoromethyl-1-butenyl)-phenyl]-propyl}-3-fluoro-2′-methyl-biphenyl-4-yl)-acetic Acid] | 1624
CCC(CC)(c1ccc(/C=C/C(O)(C(F)(F)F)C(F)(F)F)c(C)c1)c1ccc(-c2ccc(CC(=O)O)c(Cl)c2)c(C)c1 [Example 73, (3-chloro-4′-{1-ethyl-1-[3-methyl-4-((E)-4,4,4-trifluoro-3-hydroxy-3-trifluoromethyl-1-butenyl)-phenyl]-propyl}-2′-methyl-biphenyl-4-yl)-acetic Acid] | 1595
CCC(CC)(c1ccc(/C=C/C(O)(C(F)(F)F)C(F)(F)F)c(C)c1)c1ccc(-c2ccc(CC(=O)O)cn2)c(C)c1 [Example 74, [6-(4-{1-ethyl-1-[3-methyl-4-((E)-4,4,4-trifluoro-3-hydroxy-3-trifluoromethyl-1-butenyl)-phenyl]-propyl}-2-methyl-phenyl)-pyridin-3-yl]-acetic Acid] | 1848
CCC(CC)(c1ccc(/C=C/C(O)(C(F)(F)F)C(F)(F)F)c(C)c1)c1ccc(-c2cncc(CC(=O)O)c2)c(C)c1 [Example 75, [5-(4-{1-ethyl-1-[3-methyl-4-((E)-4,4,4-trifluoro-3-hydroxy-3-trifluoromethyl-1-butenyl)-phenyl]-propyl}-2-methyl-phenyl)-pyridin-3-yl]-acetic Acid] | 1283
CCC(CC)(c1ccc(C#CC(O)(C(F)(F)F)C(F)(F)F)c(C)c1)c1ccc(-c2ccc(CC(=O)O)c(F)c2)c(C)c1 [Example 78, (4′-{1-ethyl-1-[3-methyl-4-(4,4,4-trifluoro-3-hydroxy-3-trifluoromethyl-1-butynyl)-phenyl]-propyl}-3-fluoro-2′-methyl-biphenyl-4-yl)-acetic Acid] | 617
